Usually IC50 stands for the concentration that gives 50% inhibition.

This passage reports IC50 results from ChEMBL document CHEMBL3297664, “Identification and characterization of a new reversible MAGL inhibitor” (Bioorg Med Chem, 2014).

Assay [1] addresses T1, Monoglyceride lipase (Homo sapiens, UniProt Q99685).
T1 sequence (Q99685 whole entry): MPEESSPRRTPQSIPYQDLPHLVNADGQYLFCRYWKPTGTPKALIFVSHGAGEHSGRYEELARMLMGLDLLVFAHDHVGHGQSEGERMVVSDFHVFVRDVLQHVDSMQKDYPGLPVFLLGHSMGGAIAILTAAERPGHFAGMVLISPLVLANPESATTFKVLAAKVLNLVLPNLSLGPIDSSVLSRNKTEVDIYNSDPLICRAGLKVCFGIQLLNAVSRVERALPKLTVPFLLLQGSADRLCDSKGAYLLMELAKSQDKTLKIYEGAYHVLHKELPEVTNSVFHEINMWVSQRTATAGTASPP
Description: Inhibition of human recombinant MAGL using 4-nitrophenylacetate as substrate.

Assay [2] deals with T1, Monoglyceride lipase. Description: Inhibition of human recombinant MAGL using 4-nitrophenylacetate as substrate preincubated for 30 mins followed by substrate addition.
In assay [3] the target is T1, Monoglyceride lipase. Description: Inhibition of human recombinant MAGL using 4-nitrophenylacetate as substrate preincubated for 60 mins followed by substrate addition.
For a further assay, the system named is MCF7. Put plainly: Cytotoxicity against human MCF7 cells assessed as growth inhibition after 96 hrs. To be noted: MCF7, 96 h.
The subject of the next assay is MDA-MB-231. Description: Cytotoxicity against human MDA-MB-231 cells assessed as growth inhibition after 96 hrs. As to conditions: MDA-MB-231, 96 h.
Assay [4] is described as follows: Cytotoxicity against human COV318 cells assessed as growth inhibition after 96 hrs. To be noted: COV318, 96 h.
Assay [5] is described as follows: Cytotoxicity against human OVCAR3 cells assessed as growth inhibition after 96 hrs. To be noted: OVCAR-3, 96 h.
Assay [6] is described as follows: Cytotoxicity against human MSC assessed as growth inhibition after 96 hrs.
Assay [7] concerns the target T1, Monoglyceride lipase. Description: Inhibition of human recombinant MAGL using 4-nitrophenylacetate as substrate after 30 mins.

Take `COc1nn(-c2ccc(NC(=O)OCc3ccccc3)c(C)c2)c(=O)o1`: the half-inhibitory concentration (IC50) at Monoglyceride lipase [1] was determined as 146 nM; at Monoglyceride lipase [2], 26 nM; on Monoglyceride lipase [3], 9 nM; with MCF7, 4.2 µM; in the assay with MDA-MB-231, 46 µM; in assay [4] it was 107 µM. In addition, the IC50 is over 79.8 µM in assay [5] and 276 µM in assay [6].
Turning to `O=C(Cn1nnc(-c2ccc(N3CCOCC3)cc2)n1)N1CCN(c2ccccc2)CC1`, the half-maximal inhibitory concentration (IC50) on Monoglyceride lipase [7] is over 500 µM.
Consider `COc1ccc(-c2nnn(CC(=O)N3CCN(c4ccc(F)cc4)CC3)n2)cc1`, for which the IC50 on Monoglyceride lipase [7] is over 500 µM.
The same measure, in the same setting: then `O=C(Cc1ccccc1)N1CCC(C(=O)N2CCN(c3ccc(F)cc3)CC2)CC1`, with over 500 µM; and `O=C(c1ccc([N+](=O)[O-])cc1)c1ccc2c(c1)C(=O)N(c1cccnc1)C2=O`, with over 500 µM.
As to `CCOc1ccc(N2CC(C(=O)Nc3ccc(C(C)=O)cc3)CC2=O)cc1` (stereo not given), the IC50 on Monoglyceride lipase [7] is over 500 µM.
Take `COc1ccc(CNC(=O)c2ccc3nc(-c4ccoc4)c(-c4ccoc4)nc3c2)cc1`: at Monoglyceride lipase [7], the IC50 was over 500 µM.
As for `COc1ccc(C(=O)N2CCC(C(=O)c3ccc(Cl)cc3)CC2)cc1`, the IC50 was 19.9 µM with MCF7; 75.3 µM in the assay with MDA-MB-231; 73.9 µM in [4]; 50.7 µM in [5]; over 300 µM in [6].
Turning to `COc1ccc(-c2nnc(SCC(=O)N3CCN(c4ccc(OC)cc4)CC3)o2)cc1`, the IC50 on Monoglyceride lipase [7] is over 500 µM.
